Assay results as given in PMC11428593 (Antibiotics, 2024).
Entries after “also recorded” stand apart in the source; their conditions may differ.

Tests used:
Assay type in all cases: cell-based, Staphylococcus aureus
[1] = tested on: S. aureus strain USA300LAC; test: Fluorescence microscopy (DAPI/Nile Red) of membrane deformation
Text: Given the high lipophilic nature and membrane-compromising effects of JC-01-074, we wondered about the possibility that the alkyl chain of JC-01-074 could be incorporated into the phospholipid bilayer, thereby destabilizing the uniform packing of the membrane phospholipids and potentially resulting in “bleb formation”, as this had been reported before. To test this idea, we cultivated the S. aureus strain USA300LAC to the mid-log phase and treated the cells with the indicated concentrations of JC-01-074 and daptomycin (as a positive control), respectively. Samples were collected at 15 and 60 mins of treatment, washed twice, and resuspended in fresh PBS. Cells were then stained with 4′,6-diamidino-2-phenylindole (DAPI) and Nile Red for 10 min, respectively. DAPI is a nucleic acid stain that binds to DNA, while Nile Red is commonly used as an inner membrane stain to quantify lipids. The cells were then mounted onto a glass slide with 1% agarose and imaged at 63× magnification via inverted confocal laser scanning microscopy. […] To rule out the possibility that these blebs were transiently formed, we further imaged the cells exposed to JC-01-074 for 60 min. […] The smaller blebs formed may have extended over the incubation time, resulting in their fusion into large blebs.
Figure 5 JC-01-074 treatment rapidly induces deformations in the S. aureus plasma membrane as indicated by the white arrows. […] Cells were collected at the indicated time points and stained with DAPI (5 µg/mL) and Nile Red (5 µg/mL) for 10 min, following which cells were imaged on 1% agarose pads. Images are representatives of three biological replicates. Scale bar = 1.25 µm.
The overnight USA300LAC cultures were diluted into the TSB media to an O.D.600nm = 0.01 and incubated under shaking conditions at 37 °C until the mid-log phase (O.D.600nm = 0.3) was reached. […] The cells were then imaged on 1% agarose gel pads and via fluorescence microscopy using a Leica SP8 confocal microscope. […] Fluorescence was detected between the wavelengths of 500–560 nm, with an 8×- line averaging.

[2] = tested on: S. aureus strain USA300LAC established biofilm; test: Biofilm eradication assay (crystal violet); conditions: at or below 4× MIC, 24 h, in words
Protocol: (§1) The establishment of a bacterial biofilm usually begins with pathogen attachment to biotic and abiotic surfaces, and S. aureus is notorious for its ability to form biofilms on surfaces, such as implants and catheters, which presents a unique treatment challenge.
(§2) Overnight cultures of S. aureus strain USA300LAC were diluted into fresh TSB to an OD600nm = 0.001 and incubated aerobically at 37 °C until the mid-log phase. (A) To detect effects on biofilm formation, cultures were diluted to an OD600nm = 0.0001 in the presence and absence of JC-01-074 and vancomycin at concentrations of 0.5–4× MIC, respectively. (B) To detect effects on biofilm eradication, cultures were diluted to an OD600nm = 0.0001 and incubated under static conditions for 24 h, after which planktonic cells were removed, and the preformed biofilms were washed twice with PBS. […] Biofilm mass was quantified after 20 h via crystal violet staining. One-way ANOVA, Dunnett’s multiple-comparison test (* p < 0.05, ** p < 0.01); (n = 3, ±S.D.).
The overnight USA300LAC cultures were diluted 1000-fold into the TSB media and incubated under shaking conditions at 37 °C until the mid-log phase. […] After 24 h of incubation, biofilm eradication was assessed via CV staining at 595 nm in a Tecan 200 Infinite Pro microplate reader (Tecan, Morgan Hill, CA, USA).

[3] = tested on: S. aureus strain USA300LAC biofilm; test: Inhibition of biofilm formation (crystal violet)
Protocol: as §1, §2
The overnight USA300LAC cultures were diluted 1000-fold into the fresh TSB media and incubated under shaking conditions at 37 °C until the mid-log phase. The cultures were subsequently diluted to approximately 4 × 10^6 CFU/mL and dispended into 96-well polystyrene plates (Alkali Scientific, Fort Lauderdale, FL, USA) containing DMSO (control), vancomycin (0.5–4× MIC), or the indicated alkyl pyridinol compounds (0.5–4× MIC) and sealed with a breath-easy membrane (Fisherbrand, Waltham, MA, USA). The peripheral wells were filled with PBS to limit evaporation. The plates were incubated without agitation at 37 °C for 24 h, following which the planktonic cells were removed. The biofilms were washed twice with PBS, stained with 0.1% crystal violet (CV) for 15 min, and washed again twice with PBS to remove the unbound CV dye. CV bound to biofilm cells was extracted with 30% (v/v) glacial acetic acid, and the O.D.595nm was determined.

With `CCCCCCCCCC#Cc1cccc(O)n1` [JC-01-074] the “membrane morphology after 60 min” value ([1]; 0.5× and 1× MIC, 60 min, USA300LAC) was “formation of aberrant membrane blebs”, the “lowest concentration at which bleb formation was observed” value ([1]; USA300LAC plasma membrane, 0.5× MIC) was 8 µg/mL and the “earliest time at which bleb formation was observed” value ([1]; USA300LAC, after addition of compound) was 15 min. The “eradication of established biofilms” value [2] was “has no effect once biofilms have been established; also recorded: no significant effects on the already established biofilms”, the “reduction of biofilm formation” value ([3]; 0.5–4× MIC, dose-dependent) was 60–70% and the “inhibition of biofilm formation” value ([3]; up to 4× MIC, in words) was “very potent in inhibiting their formation”.
